In US12545685B2 (Daiichi Sankyo Company, Limited, priority 2011, dated 2026):

Legend:
[1] = human, microsomes, 0.5 h
Experimental: 100 μl of 100 mM phosphate buffer solution (pH 7.4) containing 3 μM test compound was added to 100 μl of reaction solution containing 100 mM phosphate buffer solution (pH 7.4), 30 mM glucose 6-phosphate, 10 mM MgCl2·6H2O, 3 units/ml glucose 6-phosphate 1-dehydrogenase, and 0.3 to 1.5 mg/ml human liver microsomes and the mixture was incubated at 37° C. for 20 minutes. Then 70 μl of 100 mM phosphate buffer solution (pH 7.4) containing 3 mM NADP+ was added and the mixture was further incubated at 37° C. for 30 minutes to conduct a microsomal metabolism test. The compound was quantified by the internal standard method using a quadrupole mass spectrometer connected to a high performance liquid chromatography apparatus. The metabolic stability (residual percentage of compound: MS %) was determined according to the following formula;
(peak area ratio: peak area of test compound divided by that of internal standard substance)

[2] = test system: human lung cancer-derived cell line NCI-H460 having wild-type p53; assay: Cell growth inhibition assay (MTT); type: cell-based; conditions: 72 h, NCI-H460 cells, 3 days culture, values given as ranges, read-out: 50% growth inhibition concentration (GI50 value)
How it was run: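 NCI-H460 cells (wild-type p53) seeded at 500 cells/well in RPMI1640 with 10% FBS, then treated the next day and grown 3 days at 37 °C. MTT read-out at OD 540 nm (660 nm reference), taken at dosing and at day 3. GI50 derived from T/C (%) dose-response curves.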

[3] = biological target: T1, Mdm2/p53 binding (GST-Mdm2 / His-p53) (Homo sapiens, UniProt Q00987, L33E); assay: Mdm2/p53 binding assay (HTRF, His-p53 and GST-Mdm2); conditions: His-p53 (aa 1-132) and GST-Mdm2 (aa 25-108, L33E) 6.25 nM each; 25°C, 1 hour; values given as ranges
T1 construct: Mdm2 partial protein having Mdm2 amino acids at positions 25 to 108
T1 sequence (Q00987 25-108 L33E): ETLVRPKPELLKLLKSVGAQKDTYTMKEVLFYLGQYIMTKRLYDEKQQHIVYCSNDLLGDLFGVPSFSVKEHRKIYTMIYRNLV
How it was run: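 His-p53 (aa 1–132) and GST-Mdm2 (aa 25–108, L33E) were prepared at 6.25 nM each in the protein dilution (20 mM HEPES pH 7.4, 150 mM NaCl, 0.1% BSA). Compound in 10% DMSO buffer and XL665 anti-His/Eu anti-GST antibodies (KF buffer) were added, with 1 h at 25 °C. The 665/620 nm TR-FRET ratio gave T/C and a sigmoid-fitted IC50.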

Structure (SMILES) | metabolic stability (residual percentage of compound: MS %) [1] | GI50 [2] [nM] | IC50 [3] [nM]
CC1(C)CCC2(CC1)N[C@@H](C(=O)N[C@H]1CC[C@H](c3nnco3)CC1)[C@H](c1cccc(Cl)c1F)[C@]21C(=O)Nc2cc(Cl)ncc21 (relative stereo) [Example 108, (3′R, 4′S, S′R)-6″-chloro-4′-(3-chloro-2-fluorophenyl)-4,4-dimethyl-N-[trans-4-(1,3,4-oxadiazol-2-yl)cyclohexyl]-2″-oxo-1″,2″-dihydrodispiro[cyclohexane-1,2′-pyrrolidine-3′,3″-pyrrolo[3,2-c]pyridine]-5′-carboxamide] | 70-100% |  | 
CC1(C)CCC2(CC1)N[C@@H](C(=O)NC1(C)CC[C@@H](C(=O)O)OC1)[C@H](c1ccnc(Cl)c1F)[C@]21C(=O)Nc2cc(Cl)ccc21 (stereo partly drawn) [Example 188, (2S)-5-({[(3′R, 4′S,5′R)-6″-chloro-4′-(2-chloro-3-fluoropyridin-4-yl)-4,4-dimethyl-2″-oxo-1″,2″-dihydrodispiro[cyclohexane-1,2′-pyrrolidine-3′,3″-indole]-5′-yl]carbonyl}amino)-5-methyltetrahydro-2H-pyran-2-carboxylic acid] |  | 100 to 500 | 1 to 50
CC1(C)CCC2(CC1)N[C@@H](C(=O)N[C@@H]1CC[C@@H](C(N)=O)OC1)[C@H](c1ccnc(Cl)c1F)[C@]21C(=O)Nc2cc(Cl)ncc21 [Example 191] |  | 100 to 500 | 1 to 50
